Laboratory results taken from patent US11136311B2, “Heteroaromatic derivatives as NIK inhibitors” (Janssen Pharmaceutica NV, priority 2016, dated 2021).
Read-outs that look alike come from different tables or passages of the source.

Legend:
[1] = molecular target: recombinant human NF-kappaB-inducing kinase (NIK/MAP3K14) (Homo sapiens (Human), UniProt Q99558); test: Inhibition of auto-phosphorylation of recombinant human NIK/MAP3K14 activity (AlphaScreen); format: biochemical; details: averaged values over all measurements on all batches
Outline: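 AlphaScreen read-out, using anti-phospho-IKK Ser176/180 antibody, tracked NIK autophosphorylation after 1 h at 25° C. Reactions held 0.2 nM GST-NIK, 25 microM ATP and compound in 1% DMSO, Tris pH 7.5 buffer. IC50 fitted sigmoidally to blank-subtracted inhibition data.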

[2] = test system: P-IKKα levels in L363 cells; test: Effect of compounds on P-IKKα levels in L363 (NIK translocated multiple myeloma) cells; format: cell-based, human; details: averaged values, read-out: Inhibition of pIKKα_L-363 (IC50 (nM))
Outline: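 L363 myeloma cells were primed 24 h with BAFF, then treated 2 h with compound (8-point, 1:3 dilutions, 1% DMSO) at 37°C. P-IKKα in lysates was measured by Mesoscale sandwich immunoassay, with the full-inhibition blank subtracted. IC50 came from a sigmoidal fit of % inhibition of control against log concentration.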

[3] = test system: JJN-3 cells; test: Antiproliferative activity on JJN-3 (NIK translocated) multiple myeloma cells (CellTiter-Glo); format: cell-based, human; details: JJN-3 (NIK translocated) cells, 96 hr, averaged values, read-out: JJN-3 Proliferation inhibition (IC50 (nM))
Outline: (§1)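 Viability was read by CellTiter-Glo after 96 hr compound exposure (9-point, 1:3 serial dilutions; 0.3% DMSO final). JJN-3 and KMS12-BM cells were seeded at 15000 and 20000 per well respectively in RPMI 1640/10% FCS; blank-subtracted signals were given as percent of drug-free controls.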

[4] = test system: KMS12-BM cells; test: Antiproliferative activity on KMS12-BM (NIK WT) multiple myeloma cells (CellTiter-Glo); format: cell-based, human; details: KMS12-BM (NIK WT) cells, 96 hr, averaged values, read-out: KMS-12 Proliferation inhibition (IC50 (nM))
Outline: as §1

[5] = Homo sapiens, L-363, L363 cells

Sequence of recombinant human NF-kappaB-inducing kinase (NIK/MAP3K14) (Q99558 whole entry): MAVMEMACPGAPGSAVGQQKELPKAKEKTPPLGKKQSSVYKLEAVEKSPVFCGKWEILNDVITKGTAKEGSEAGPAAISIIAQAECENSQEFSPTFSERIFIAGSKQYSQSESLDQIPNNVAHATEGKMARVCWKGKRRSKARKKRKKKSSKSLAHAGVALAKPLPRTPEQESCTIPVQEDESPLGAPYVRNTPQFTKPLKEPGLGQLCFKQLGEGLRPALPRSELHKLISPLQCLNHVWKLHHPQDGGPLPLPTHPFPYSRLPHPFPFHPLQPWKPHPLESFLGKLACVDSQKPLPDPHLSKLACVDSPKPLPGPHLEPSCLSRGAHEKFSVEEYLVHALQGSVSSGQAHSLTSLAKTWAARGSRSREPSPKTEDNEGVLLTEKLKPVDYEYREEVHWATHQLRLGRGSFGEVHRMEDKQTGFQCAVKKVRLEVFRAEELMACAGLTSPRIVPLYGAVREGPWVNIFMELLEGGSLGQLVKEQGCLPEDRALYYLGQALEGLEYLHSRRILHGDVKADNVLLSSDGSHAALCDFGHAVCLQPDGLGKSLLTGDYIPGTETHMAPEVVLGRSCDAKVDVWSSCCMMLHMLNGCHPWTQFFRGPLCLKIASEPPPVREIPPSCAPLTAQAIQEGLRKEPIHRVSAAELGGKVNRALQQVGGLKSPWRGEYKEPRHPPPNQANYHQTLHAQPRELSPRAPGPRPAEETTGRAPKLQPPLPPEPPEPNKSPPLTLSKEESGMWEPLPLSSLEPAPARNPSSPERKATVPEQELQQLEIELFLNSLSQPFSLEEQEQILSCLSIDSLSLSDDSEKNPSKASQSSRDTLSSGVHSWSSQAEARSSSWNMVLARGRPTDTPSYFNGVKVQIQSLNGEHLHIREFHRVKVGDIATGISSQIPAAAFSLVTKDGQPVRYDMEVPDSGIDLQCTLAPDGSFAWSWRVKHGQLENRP

| IC50 [1] | IC50 [2, 5] | IC50 ([3]; Homo sapiens, JJN-3, 96 h) | IC50 ([4]; Homo sapiens, KMS-12-BM, 96 h) | IC50 ([2]; L363 cells) | IC50 [3] | IC50 [4] | Structure (SMILES) |
| --- | --- | --- | --- | --- | --- | --- | --- |
| 7.2 nM | 562 nM | 724 nM | > 10000 nM |  |  |  | Cc1cc(Nc2nccc(-c3cc(C#N)c4c(c3)C(C)(CO)CN4)n2)n(CC2CCN(CC(=O)N(C)C)CC2)n1 (stereo not drawn) [Compound 136] |
| 6.3 nM | 36 nM | 676 nM | > 10000 nM |  |  |  | Cc1cc(Nc2nccc(-c3cc(C#N)c4c(c3)[C@@](C)(CO)CN4)n2)n(CC2CCN(CC(F)(F)F)CC2)n1 [Compound 137] |
| 8.3 nM | 178 nM | 44 nM | 2570 nM |  |  |  | COCCN1CCC(Cn2nc(Cl)cc2Nc2nccc(-c3cc(C#N)c4c(c3)[C@@](C)(CO)CN4)n2)CC1 [Compound 138] |
| 13 nM | 182 nM | 1120 nM | > 10000 nM |  |  |  | Cc1cc(Nc2nccc(-c3cc(C#N)c4c(c3)[C@@](C)(CO)CN4)n2)n(C[C@@H]2CN(C)CCO2)n1 [Compound 139] |
| 0.7 nM | 8 nM | 50 nM | ~741 nM |  |  |  | Cc1nc(Nc2nccc(-c3cc(C#N)c4c(c3)[C@@](C)(CO)CN4)n2)sc1C(=O)N(C)C [Compound 149] |
| 15 nM | 170 nM | 2400 nM | > 10000 nM |  |  |  | Cn1cc(Nc2nccc(-c3cc(C#N)c4c(c3)[C@@](C)(CO)CN4)n2)c(CN2CCOCC2)n1 [Compound 150] |
| 2 nM | 13 nM | 871 nM | 7080 nM |  |  |  | CC(C)Cn1nc(CO)cc1Nc1nccc(-c2cc(C#N)c3c(c2)[C@@](C)(CO)CN3)n1 [Compound 151] |
| 17 nM | 135 nM | 646 nM | 7940 nM |  |  |  | C[C@]1(CO)CNc2c(C#N)cc(-c3ccnc(Nc4cc(Cl)nn4CC4CCN(CC(F)(F)F)CC4)n3)cc21 [Compound 152] |
| 4.3 nM | 28 nM | 1440 nM | > 10000 nM |  |  |  | COCCn1nc(CO)cc1Nc1nccc(-c2cc(C#N)c3c(c2)[C@@](C)(CO)CN3)n1 [Compound 153] |
| 4.9 nM | 15 nM | 646 nM | 2290 nM |  |  |  | Cc1cc(Nc2nccc(-c3cc(C#N)c4c(c3)[C@@](C)(CO)CN4)n2)n(CCC2(C)COC2)n1 [Compound 154] |
| 9.3 nM | 126 nM | 59 nM | > 10000 nM |  |  |  | COCCN1CCC(Cn2nc(C)cc2Nc2nccc(-c3cc(C#N)c4c(c3)[C@@](C)(CO)CN4)n2)CC1 [Compound 155] |
| 3.6 nM | 14 nM | 1260 nM | ~7240 nM |  |  |  | CC(C)n1nc(CO)cc1Nc1nccc(-c2cc(C#N)c3c(c2)[C@@](C)(CO)CN3)n1 [Compound 156] |
| 10 nM |  |  |  | 91 nM | 1510 nM | > 10000 nM | C[C@@]1(CO)CNc2c(C#N)cc(-c3ccnc(Nc4cnn(CCC5CC5)c4CN4CCOCC4)n3)cc21 [Compound 159] |
| 3.6 nM | 34 nM | 69 nM | ~5010 nM |  |  |  | CN1CCC(F)(Cn2nc(Cl)cc2Nc2nccc(-c3cc(C#N)c4c(c3)[C@@](C)(CO)CN4)n2)CC1 [Compound 160] |
| 4.3 nM | 83 nM | 204 nM | 2240 nM |  |  |  | CN1CC[C@@H](Cn2nc(Cl)cc2Nc2nccc(-c3cc(C#N)c4c(c3)[C@@](C)(CO)CN4)n2)C1 [Compound 161] |
| 12 nM | 5 nM | 309 nM | > 10000 nM |  |  |  | CC(C)CCc1c(Nc2nccc(-c3cc(C#N)c4c(c3)[C@@](C)(CO)CN4)n2)cnn1CC1CCN(CC(F)(F)F)CC1 [Compound 163] |
| 2.6 nM | < 0.66 nM | 132 nM | 4680 nM |  |  |  | CC(C)n1nc(Nc2nccc(-c3cc(C#N)c4c(c3)[C@@](C)(CO)CN4)n2)cc1C(=O)NC1CC1 [Compound 164] |

| IC50 [1] | IC50 [2, 5] | IC50 ([3]; Homo sapiens, JJN-3, 96 h) | IC50 ([4]; Homo sapiens, KMS-12-BM, 96 h) | IC50 ([2]; L363 cells) | IC50 [3] | IC50 [4] | Structure (SMILES) |
| --- | --- | --- | --- | --- | --- | --- | --- |
| 8.5 nM | 48 nM | 1620 nM | > 10000 nM |  |  |  | Cc1cc(Nc2nccc(-c3cc(C#N)c4c(c3)[C@@](C)(CO)CN4)n2)n(CCN2CCOCC2)n1 [Compound 165] |
| 13 nM | 151 nM | 37 nM | > 10000 nM |  |  |  | CN1CCN(Cc2nn(C)cc2Nc2nccc(-c3cc(C#N)c4c(c3)[C@@](C)(CO)CN4)n2)CC1 [Compound 166] |
| 13 nM | 62 nM | 83 nM | > 10000 nM |  |  |  | CN1CCN(Cc2c(Nc3nccc(-c4cc(C#N)c5c(c4)[C@@](C)(CO)CN5)n3)cnn2CCC2CC2)CC1 [Compound 167] |
| 3.9 nM | 16 nM | 389 nM | ~7080 nM |  |  |  | CC(C)CCc1c(Nc2nccc(-c3cc(C#N)c4c(c3)[C@@](C)(CO)CN4)n2)cnn1CC1CCN(CC(F)F)CC1 [Compound 169] |
| 2.2 nM | 7 nM | 417 nM | ~1780 nM |  |  |  | Cc1c(Nc2nccc(-c3cc(C#N)c4c(c3)[C@@](C)(CO)CN4)n2)cnn1CCN1CCOCC1 [Compound 170] |
| 32 nM | 76 nM | 65 nM | ~3310 nM |  |  |  | Cn1ccc(Nc2nccc(-c3cc(C#N)c4c(c3)[C@@](C)(CN3CCN(C5CC5)CC3)CN4)n2)n1 [Compound 176] |
| 10 nM | 28 nM | 81 nM | > 10000 nM |  |  |  | COCCCn1nc(C)cc1Nc1nccc(-c2cc(C#N)c3c(c2)[C@@](C)(COC(C)=O)CN3)n1 [Compound 177] |
| 20 nM |  |  |  | 141 nM | 98 nM | 2340 nM | CC(=O)OC[C@@]1(C)CNc2c(C#N)cc(-c3ccnc(Nc4cc(C)nn4CC4CCN(C)CC4)n3)cc21 [Compound 178] |
| 4.7 nM | 2 nM | 46 nM | ~6720 nM |  |  |  | COCCc1nn(CC(F)F)cc1Nc1nccc(-c2cc(C#N)c3c(c2)[C@@](C)(CO)CN3)n1 [Compound 180] |
| 3.3 nM | 11 nM | 87 nM | ~9120 nM |  |  |  | COCCc1c(Nc2nccc(-c3cc(C#N)c4c(c3)[C@@](C)(CO)CN4)n2)cnn1CC(F)F [Compound 181] |
| 1.7 nM | 1 nM | 151 nM | 1380 nM |  |  |  | Cc1cc(Nc2nccc(-c3cc(C#N)c4c(c3)[C@@](C)(CO)CN4)n2)nn1CCN1CCOCC1 [Compound 182] |
| 22 nM | 35 nM | 1410 nM | ~9770 nM |  |  |  | CNC(=O)c1cc(Nc2nccc(-c3cc(C#N)c4c(c3)[C@@](C)(CO)CN4)n2)n(C(C)C)n1 [Compound 183] |
| 5.4 nM | 17 nM | 224 nM | > 10000 nM |  |  |  | CN1CCN(C(=O)c2nn(CC(F)F)cc2Nc2nccc(-c3cc(C#N)c4c(c3)[C@@](C)(CO)CN4)n2)CC1 [Compound 184] |
| 6 nM | 20 nM | 91 nM | > 10000 nM |  |  |  | CN1CCN(Cc2nn(CC(F)F)cc2Nc2nccc(-c3cc(C#N)c4c(c3)[C@@](C)(CO)CN4)n2)CC1 [Compound 185] |
| 6.5 nM | 3 nM | 151 nM | 617 nM |  |  |  | Cc1cc(Nc2nccc(-c3cc(C#N)c4c(c3)[C@@](C)(CO)CN4)n2)n(CC(F)F)n1 [Compound 186] |
| 7.2 nM | 11 nM | ~1380 nM | > 10000 nM |  |  |  | CNC(=O)c1nn(CC(F)F)cc1Nc1nccc(-c2cc(C#N)c3c(c2)[C@@](C)(CO)CN3)n1 [Compound 187] |
